Measurements as given in paper PMC6268586, “Effect of Wine and Vinegar Processing of Rhizoma Corydalis on the Tissue Distribution of Tetrahydropalmatine, Protopine and Dehydrocorydaline in Rats” (Molecules, 2012).
Read-outs that look alike come from different tables or passages of the source.

Assay: Tissue distribution of THP, DHC and protopine in rat tissues after gastric gavage administration (HPLC-UV, non-compartmental analysis)
Type: in vivo, Wistar male rats
Conditions: male, Wistar, po, 4.52 mg/kg; for AUC(0-t): read-out: AUC0–24 h of protopine; for Cmax: read-out: Cmax of protopine; for MRT: read-out: MRT of protopine; for Tmax: read-out: Tmax of protopine
Method: The experimental protocol was approved by the University's Animal Ethics Committee. […] Rats had unlimited access to water. Standard food was given until 12 h before the experiments. Rhizoma Corydalis was processed according to Pharmacopoeia of Chinese Medicine and National Guideline of Traditional Chinese Medicinal Plants Processing. Briefly, fresh Rhizoma Corydalis was boiled in water till the pith turn light brown color. Cooked rhizome was sliced into pieces (4 mm, diameter) and dried at 25 °C. Dried slices were mixed with edible vinegar (100:20, rhizome/vinegar, w/v) or yellow wine (100:10, rhizome/wine, w/v) and the slices allowed to completely absorb the vinegar or wine. The soaked slices were then stir-fried in a metallic pan over a low flame till they were completely dry. The processed Rhizoma Corydalis was added with 70% ethanol (1:30 w/v) and sonicated for 1 h at room temperature. The extract was then concentrated to remove the ethanol residue and stored at 4 °C for further use. […] The ethanol extract of the unprocessed Rhizoma Corydalis and THP, DHC and protopine pure compound were used as the controls. Three hundred and sixty healthy rats were used in total and are divided into six groups (Group 1-6, sixty rats per group). Drugs were administrated by gastric gavage method. In order to keep the dose of THP, DHC and protopine constant in each group, the amount of ethanol extract of Rhizoma Corydalis administrated was normalized based on the dose of protopine pure compound used. The dose of THP and DHC pure compound administrated was same with that in the ethanol extract of Rhizoma Corydalis. The details were listed below. […] Rats were administrated with the 70% ethanol extract of unprocessed Rhizoma Corydalis at a dose of 17.75 g extract/kg body weight. […] Rats received the extract of vinegar-processed Rhizoma Corydalis at a dose of 15 g extract/kg rat body weight. Group 3: Rats were administrated with the extract of wine processed Rhizoma Corydalis at a dose of 15.78 g extract/kg body weight. […] Rats received THP pure compound at a dose of 6.45 mg/kg body weight. Group 6: Rats were administrated 26.10 mg of DHC pure compound/kg body weight. […] Brian tissue was further dissected into six parts: cerebrum, cerebellum, diencephalons, brain stem, hippocampus and striatum. All the tissue samples were rinsed with ice-old saline and stored at -20 °C until extraction. Tissue samples were homogenized in three volumes of ice-cold biological saline and centrifuged for 10 min at 10,000 g and 4 °C. An aliquot of the supernatant (0.5 mL) was collected. Liquid-liquid extraction was used to extract THP, DHC and protopine. One hundred microliter of 1.0 μg/mL nuciferin (internal standard) was mixed with 0.5 mL aliquots of the supernatant. […] The supernatant was evaporated completely under the nitrogen stream in a 60 °C water bath. The residue was redissolved in 100 μL of methanol. A CoMetro HPLC system (CoMetro Technology Ltd, South […], NJ, USA) with 6000 PVW detector UV-VIS detector was used. […] Ltd., Liaoning, China). Other chromatographic conditions were: column temperature, 35 °C; mobile phase, acetonitrile-0.1% phosphoric acid (pH 3.0) (30:70 v/v); flow rate, 1 mL/min; wavelength, 280 nm. Pharmacokinetic parameters were estimated by non-compartmental analysis using Equiv Test/PK (Statistical Solutions Ltd., Saugus, MA, USA). The maximum concentration (Cmax) and the time to reach the maximum concentration (Tmax) were directly obtained from the observed value. All data were represented as mean ± SD. Comparison of values between groups was performed using one-way ANOVA followed by Tukey's test for comparisons among four groups.

[1] = diencephalon, rat diencephalons

## CN1CCc2cc3c(cc2C(=O)Cc2ccc4c(c2C1)OCO4)OCO3 [protopine]
[1]
  AUC(0-t): 3180 ± 70 ng·h/mL
  Cmax: 1310 ± 270 ng/mL
  MRT: 4.89 ± 0.01 h
  Tmax: 2.07 ± 0.21 h
Rat brain stem
  AUC(0-t): 2020 ± 420 ng·h/mL
  Cmax: 820 ± 170 ng/mL
  MRT: 3.9 ± 0.14 h
  Tmax: 2.2 ± 0.01 h
Rat cerebellum
  AUC(0-t): 3800 ± 830 ng·h/mL
  Cmax: 1560 ± 320 ng/mL
  MRT: 4.86 ± 0.08 h
  Tmax: 2.08 ± 0.01 h
Rat cerebrum
  AUC(0-t): 3650 ± 780 ng·h/mL
  Cmax: 1350 ± 270 ng/mL
  MRT: 3.93 ± 0.06 h
  Tmax: 2.1 ± 0.8 h
Rat heart
  AUC(0-t): 6230 ± 1560 ng·h/mL
  Cmax: 1500 ± 450 ng/mL
  MRT: 5.93 ± 0.02 h
  Tmax: 5.28 ± 0.42 h
Rat hippocampus
  AUC(0-t): 3660 ± 810 ng·h/mL
  Cmax: 1560 ± 310 ng/mL
  MRT: 5.23 ± 0.1 h
  Tmax: 2.09 ± 0.04 h
Rat kidney
  AUC(0-t): 13400 ± 2650 ng·h/mL
  Cmax: 4420 ± 1310 ng/mL
  MRT: 5.53 ± 0.04 h
  Tmax: 5.13 ± 0.04 h
Rat liver
  AUC(0-t): 27800 ± 6980 ng·h/mL
  Cmax: 6670 ± 1970 ng/mL
  MRT: 5.69 ± 0.03 h
  Tmax: 5.09 ± 0.68 h
Rat lung
  AUC(0-t): 50200 ± 12500 ng·h/mL
  Cmax: 11200 ± 3310 ng/mL
  MRT: 5.85 ± 0.04 h
  Tmax: 5.22 ± 0.47 h
Rat spleen
  AUC(0-t): 35000 ± 8180 ng·h/mL
  Cmax: 7420 ± 2220 ng/mL
  MRT: 5.65 ± 0.03 h
  Tmax: 5.22 ± 0.05 h
Rat striatum
  AUC(0-t): 6420 ± 1520 ng·h/mL
  Cmax: 1950 ± 400 ng/mL
  MRT: 6.57 ± 0.43 h
  Tmax: 2.07 ± 0.08 h
